Data as given in ChEMBL document CHEMBL2311504, “Inhibition of the human deacylase Sirtuin 5 by the indole GW5074” (Bioorg Med Chem Lett, 2013).
The source made the active and inactive calls. No cut-off for these calls is given here.

Tests used:
[1] = molecular target: T1, NAD-dependent protein deacylase sirtuin-5, mitochondrial (Homo sapiens, UniProt Q9NXA8); assay: Inhibition of human Sirt5 deacetylation activity using FKRGVL-acetylLys-EYGVKV as substrate at 100 uM after 60 mins by glutamate dehydrogenase-coupled assay
Target sequence in this assay (Q9NXA8 37-310 limits assumed): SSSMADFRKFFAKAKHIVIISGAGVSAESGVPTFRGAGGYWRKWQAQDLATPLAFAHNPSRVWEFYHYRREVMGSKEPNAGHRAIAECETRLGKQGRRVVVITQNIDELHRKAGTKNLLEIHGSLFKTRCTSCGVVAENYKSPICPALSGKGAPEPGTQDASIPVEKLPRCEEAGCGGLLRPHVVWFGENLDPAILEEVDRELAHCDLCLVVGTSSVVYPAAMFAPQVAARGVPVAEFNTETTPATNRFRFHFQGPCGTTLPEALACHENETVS

[2] = molecular target: T1, NAD-dependent protein deacylase sirtuin-5, mitochondrial; assay: Inhibition of human Sirt5 desuccinylation activity using SKEYFS-succinylLys-QK as substrate at 100 uM after 60 mins by glutamate dehydrpgenase-coupled assay
Target sequence in this assay (Q9NXA8 37-310 limits assumed): as above

[3] = molecular target: T1, NAD-dependent protein deacylase sirtuin-5, mitochondrial; assay: Inhibition of human Sirt5 deacetylation activity using SKEYFS-acetylLys-QK as substrate measured for 15 mins by MS analysis
Target sequence in this assay (Q9NXA8 whole entry): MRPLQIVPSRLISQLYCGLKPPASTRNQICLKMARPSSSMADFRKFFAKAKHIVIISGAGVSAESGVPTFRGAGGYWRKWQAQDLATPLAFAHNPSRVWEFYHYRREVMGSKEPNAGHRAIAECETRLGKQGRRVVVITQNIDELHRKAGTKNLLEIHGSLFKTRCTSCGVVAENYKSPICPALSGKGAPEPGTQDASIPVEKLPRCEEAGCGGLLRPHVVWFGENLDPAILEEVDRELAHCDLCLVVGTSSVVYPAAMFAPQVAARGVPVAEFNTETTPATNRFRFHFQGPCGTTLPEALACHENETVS

[4] = molecular target: T1, NAD-dependent protein deacylase sirtuin-5, mitochondrial; assay: Inhibition of human Sirt5 deacetylation activity using FKRGVL-acetylLys-EYGVKV as substrate measured for 15 mins by MS analysis
Target sequence in this assay (Q9NXA8 whole entry): as above

[5] = molecular target: T1, NAD-dependent protein deacylase sirtuin-5, mitochondrial; assay: Inhibition of human Sirt5 deacetylation activity using FKRGVL-acetylLys-EYGVKV as substrate assessed as activity remaining at 100 µM measured for 20 mins by MS analysis
Target sequence in this assay (Q9NXA8 37-310 limits assumed): as the sequence (Q9NXA8 37-310 limits assumed) above

[6] = molecular target: T1, NAD-dependent protein deacylase sirtuin-5, mitochondrial; assay: Selectivity ratio of IC50 for human Sirt5 deacetylation activity to IC50 for human Sirt5 desuccinylation activity
Target sequence in this assay (Q9NXA8 37-310 limits assumed): as above

[7] = molecular target: T1, NAD-dependent protein deacylase sirtuin-5, mitochondrial; assay: Inhibition of human Sirt5 desuccinylation activity using SKEYFS-succinylLys-QK as substrate assessed as activity remaining at 100 µM measured for 20 mins by MS analysis
Target sequence in this assay (Q9NXA8 37-310 limits assumed): as above

[8] = molecular target: T1, NAD-dependent protein deacylase sirtuin-5, mitochondrial; assay: Inhibition of human Sirt5 desuccinylation activity using SKEYFS-succinylLys-QK as substrate measured for 15 mins by MS analysis
Target sequence in this assay (Q9NXA8 whole entry): as the sequence (Q9NXA8 whole entry) above

| SMILES | inhibition [1] | inhibition [2] | further results |
| --- | --- | --- | --- |
| NC(=O)C1CCCc2c1[nH]c1ccc(Cl)cc21 (stereo not given) | inactive | inactive |  |
| CC(NC(=O)c1ccccc1/N=C/c1c(O)ccc2ccccc12)c1ccccc1 (stereo not given) | inactive | inactive |  |
| O=C1Oc2ccc3cc(Br)ccc3c2CC1c1ccccc1 (stereo not given) | inactive | inactive |  |
| O=C(Nc1ccccc1-c1cn2c(CN3CCNCC3)csc2n1)c1cnc2ccccc2n1 | inactive | inactive |  |
| O=C1Nc2ccc(I)cc2C1=Cc1cc(Br)c(O)c(Br)c1 [GW305074X] |  |  | IC50 [3]: 200 µM; IC50 [4]: 97.8 µM; Activity [5]: 30%; Ratio IC50 [6]: 4; Activity [7]: 15%; IC50 [8]: 19.5 µM |
| N#C/C(=C\c1ccc(-c2cc(Cl)ccc2Cl)o1)C(=O)Nc1cccc2ncccc12 | inactive | inactive |  |

Now from value to molecule, other results behind:

| inhibition [1] | inhibition [2] | SMILES | further results |
| --- | --- | --- | --- |
| Active | 20% | Cc1ccc(C(=O)Nc2ccc(S(=O)(=O)O)c3cc(S(=O)(=O)O)cc(S(=O)(=O)O)c23)cc1NC(=O)c1cccc(NC(=O)Nc2cccc(C(=O)Nc3cc(C(=O)Nc4ccc(S(=O)(=O)O)c5cc(S(=O)(=O)O)cc(S(=O)(=O)O)c45)ccc3C)c2)c1 |  |
| inactive | 20% | CC(C(=O)Nc1cccc(/N=C/c2c(O)ccc3ccccc23)c1)c1ccccc1 (stereo not given) |  |
